Assay results reported in paper PMC10065799, “High-throughput profiling of sequence recognition by tyrosine kinases and SH2 domains using bacterial peptide display” (eLife, 2023).

Target: T1, c-Abl kinase domain (Mus musculus, UniProt P00520)
T1 sequence (P00520 242-493 limits assumed): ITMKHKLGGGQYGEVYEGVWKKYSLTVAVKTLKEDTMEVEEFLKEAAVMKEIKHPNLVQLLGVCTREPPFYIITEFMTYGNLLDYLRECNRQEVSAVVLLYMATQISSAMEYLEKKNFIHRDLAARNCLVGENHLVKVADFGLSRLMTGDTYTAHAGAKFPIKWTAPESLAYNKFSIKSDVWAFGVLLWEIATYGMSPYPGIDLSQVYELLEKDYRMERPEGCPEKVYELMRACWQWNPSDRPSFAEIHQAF
Experiment: pTyr-Var library bacterial peptide display kinase screen (enrichment scores)
Assay type: biochemical
Conditions: variant versus reference peptide

## GMAHNYRNRSQ [AASS_Y188_S191R]
  c-Abl difference (mean log2 variant - mean log2 reference): 0.7958
